Measurements: patent US7192924B2, “Corticotropin releasing factor 2 receptor agonists” (priority 2002, dated 2007)
Ends that are not written are not given here. Peptide text beside a SMILES is read from it.

Legend:
CRF2R = target: T1, CRF2R (Homo sapiens, UniProt Q13324); assay: CRF2R agonist activity (EC50, Emax), called comparative CRF binding; type: cell-based; settings: read-out: CRF2R EC50
T1 sequence (Q13324 1-411): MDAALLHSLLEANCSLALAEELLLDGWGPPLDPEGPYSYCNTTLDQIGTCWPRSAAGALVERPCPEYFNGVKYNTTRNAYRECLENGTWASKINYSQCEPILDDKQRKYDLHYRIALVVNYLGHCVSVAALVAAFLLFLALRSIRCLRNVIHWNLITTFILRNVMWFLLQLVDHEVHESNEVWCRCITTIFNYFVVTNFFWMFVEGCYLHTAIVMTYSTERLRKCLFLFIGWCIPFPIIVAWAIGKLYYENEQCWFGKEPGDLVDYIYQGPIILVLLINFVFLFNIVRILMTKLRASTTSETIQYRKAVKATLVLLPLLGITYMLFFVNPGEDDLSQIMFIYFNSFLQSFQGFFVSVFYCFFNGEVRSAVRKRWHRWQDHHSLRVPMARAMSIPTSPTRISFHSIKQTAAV
Procedure, shortened: (§1)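 Agonism is judged from increased cAMP, measured either directly in lysates or through reporter genes under a cAMP responsive element. Cells or membranes express only the receptor of interest, and vehicle-treated cells serve as control.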

CRF1R = target: T2, CRF1R (Homo sapiens, UniProt P34998); assay: CRF1R agonist activity (EC50, Emax), called comparative CRF binding; type: cell-based; settings: read-out: CRF1R EC50
T2 sequence (P34998 24-415): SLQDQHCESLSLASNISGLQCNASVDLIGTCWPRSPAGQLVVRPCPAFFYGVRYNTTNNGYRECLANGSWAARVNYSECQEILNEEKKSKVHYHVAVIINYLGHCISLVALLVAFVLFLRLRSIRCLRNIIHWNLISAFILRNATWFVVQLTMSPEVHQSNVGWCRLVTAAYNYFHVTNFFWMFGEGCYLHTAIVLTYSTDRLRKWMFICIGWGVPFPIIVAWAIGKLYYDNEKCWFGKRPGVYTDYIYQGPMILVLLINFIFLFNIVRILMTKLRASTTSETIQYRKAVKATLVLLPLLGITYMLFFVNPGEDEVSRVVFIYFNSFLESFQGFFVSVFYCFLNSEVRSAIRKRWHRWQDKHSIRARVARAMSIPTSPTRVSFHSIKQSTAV
Procedure, shortened: as §1

| Compound | EC50 (CRF2R) [nM] | EC50 (CRF1R) [nM] |
| --- | --- | --- |
| CC[C@H](C)[C@H](N)C(=O)N[C@H](C(=O)N[C@@H](CC(C)C)C(=O)N[C@@H](CO)C(=O)N[C@@H](CC(C)C)C(=O)N[C@@H](CC(=O)O)C(=O)N[C@H](C(=O)N1CCC[C@H]1C(=O)N[C@H](C(=O)N[C@@H](Cc1c[nH]cn1)C(=O)N[C@@H](CC(C)C)C(=O)N[C@@H](CC(C)C)C(=O)N[C@@H](CCC(N)=O)C(=O)N[C@H](C(=O)N[C@@H](CC(C)C)C(=O)N[C@@H](CC(C)C)C(=O)N[C@@H](CCC(=O)O)C(=O)N[C@@H](CCC(N)=O)C(=O)N[C@@H](C)C(=O)N[C@@H](CCCNC(=N)N)C(=O)N[C@@H](C)C(=O)N[C@@H](CCCNC(=N)N)C(=O)N[C@@H](C)C(=O)N[C@@H](C)C(=O)N[C@@H](CCCNC(=N)N)C(=O)N[C@@H](CCC(=O)O)C(=O)N[C@@H](CCC(N)=O)C(=O)N[C@@H](C)C(=O)N[C@H](C(=O)N[C@H](C(=O)N[C@@H](CC(N)=O)C(=O)N[C@@H](C)C(=O)N[C@@H](CCCNC(=N)N)C(=O)N[C@H](C(=O)N[C@@H](CC(C)C)C(=O)N[C@@H](C)C(=O)N[C@@H](CCCNC(=N)N)C(=O)N[C@H](C(N)=O)C(C)C)[C@@H](C)CC)[C@@H](C)O)[C@@H](C)O)[C@@H](C)CC)[C@@H](C)CC)C(C)C)C(C)C [compound 371] (H-IVLSLDVPIHLLQILLEQARARAAREQATTNARILARV-NH2; N-terminus assumed) | 6.62 | ≥ 1000 |
| CC[C@H](C)[C@H](NC(=O)[C@H](CCCNC(=N)N)NC(=O)[C@H](C)NC(=O)[C@H](CC(N)=O)NC(=O)[C@H](CCC(N)=O)NC(=O)[C@H](CCC(=O)O)NC(=O)[C@H](C)NC(=O)[C@H](CCCNC(=N)N)NC(=O)[C@H](CCC(=O)O)NC(=O)[C@H](CCCNC(=N)N)NC(=O)[C@H](CCC(N)=O)NC(=O)[C@H](CO)NC(=O)[C@H](CCC(N)=O)NC(=O)[C@@H](NC(=O)[C@H](CCCCN)NC(=O)[C@H](CCC(=O)O)NC(=O)[C@H](CC(C)C)NC(=O)[C@H](CCC(=O)O)NC(=O)[C@H](CC(C)C)NC(=O)[C@H](CC(C)C)NC(=O)[C@@H](NC(=O)[C@H](CCCNC(=N)N)NC(=O)[C@H](CC(C)C)NC(=O)[C@H](CC(C)C)NC(=O)[C@H](CC(C)C)NC(=O)[C@H](CC(C)C)NC(=O)[C@@H]1CCCN1C(=O)[C@@H](NC(=O)[C@H](CC(=O)O)NC(=O)[C@@H](NC(=O)[C@H](CO)NC(=O)[C@H](CC(C)C)NC(=O)[C@H](CO)NC(=O)[C@@H]1CCCN1C(=O)[C@H](CC(N)=O)NC(=O)[C@@H](N)CC(=O)O)[C@@H](C)CC)C(C)C)[C@@H](C)O)[C@@H](C)O)C(=O)N[C@@H](Cc1ccccc1)C(=O)N[C@@H](C)C(=O)N[C@@H](CCCNC(=N)N)C(=O)N[C@H](C(N)=O)C(C)C [compound 384] (H-DNPSLSIDVPLLLLRTLLELEKTQSQRERAEQNARIFARV-NH2; N-terminus assumed) | 7.1 | ≥ 1000 |
| HHHHHHIVLSLDVPIGLLQILLEQARARAAREQATTNARILARN-NH2 [compound 296] | 6.66 | ≥ 100 |
| NDDPPISIDLPFFLLRNMIEMARIENEREQAGLNAKYLAEV-NH2 [compound 264] | ≥ 100 | 704 |
| NDDPPISIDLPFHLLRNMIEMARIENEREQAGLNAKYLAEV-NH2 [compound 262] | ≥ 100 | 408 |
| NDDPPISIDLPFYLLRNMIEMARIENEREQAGLNAKYLAEV-NH2 [compound 261] | ≥ 100 | 274 |
| NDDPPISIDLPLFLLRNMIEMARIENEREQAGLNAKYLAEV-NH2 [compound 257] | ≥ 100 | 745 |
| NDDPPISIDLPLHLLRNMIEMARIENEREQAGLNAKYLAEV-NH2 [compound 259] | ≥ 100 | 820 |
| SQEPPISLDLTFHLLREVLEQARARAAREQATTNARILARV-NH2 [compound 157] | 42 | ≥ 100 |
